Test results as given in patent publication US10934439B2, “Additives for coating compositions and related methods” (Massachusetts Institute of Technology, priority 2017, dated 2021).

How the values were obtained:
[1] = Potentiodynamic polarization (Tafel tests) of galvanized steel in 3.5% NaCl with additives; conditions: for Corrosion rate / Icorr (corrosion current density) / IE, inhibitor efficiency from Tafel: 25° C; for formation of white rust on the steel working electrode: millimolar or higher concentrations in 3.5% NaCl; for corrosion inhibitor efficiency compared with other additives: pH 5.3, equivalent concentrations
Source text: The electrochemical open-to-air cell (PTC1™ Paint Test Cell, Gamry Instruments, Warminster, Pa.) was utilized for the potentiodynamic polarization (Tafel tests) and electrochemical impedance spectroscopy experiments. The electrochemical cell was composed of working electrode made of galvanized steel (zinc-galvanized sheets of type B carbon steel, ASTM A653, total thickness 0.305 mm, working area 2.2 cm^2 or 15.2 cm^2, McMaster Carr Supply Co., Robbinsvill, N.J.), reference Ag/AgCl electrode, and Pt wire auxiliary electrode (BASK) Corp., West Lafayette, Ind.). Prior to the immersion in the electrolyte (3.5% NaCl, pH adjusted to 5.25-5.3, 40 mL), the working electrodes were washed by acetone, ethanol, dried by nitrogen flow and polished with P1200 grit.^24 The working electrode was immersed into electrolyte containing the tested compound at a given concentration with desired pH at 25° C. for 60 min prior to each measurement. […] The carbon steel used herein was coated with the average minimum coating thickness per ASTM A653 being 2.0 mils (0.0508 mm) per surface. Tafel tests (ASTM GS) were conducted using a Parstat PMC-2000 multichannel potentiostat equipped with Versa Studio 2.50.3 software (Princeton Applied Research, Oak Ridge, Tenn.). Tafel tests were modeled with a ZSIMPWIN™ software for complex nonlinear least square analyses fitting the circuit models of the electrode interface to the Nyquist amplitude of 10 mV at the open circuit potential in the frequency range of 100 kHz to 0.2 Hz. Parameters for Tafel tests were as follows: initial potential, −1.25 V (vs reference); final potential, −0.45 V; scan properties: step height, 0.5 mV, step time, 2 s. In a series of measurements with the corrosion inhibiting additives, a range of the additive concentrations was studied and the scan range was set from 150 mV below the open circuit voltage (OCV) to 200 mV more positive than the OCV, with three measurements for each condition. The range in these measurements was limited in order to minimize the cathodic polarization causing local pH changes.
In the vicinity of Ecorr both currents are present in the specimen, but experimentally it is possible to measure only the net current. The net current has a single measurable polarity, either positive or negative. At Ecorr the net measured current is exactly zero. The corrosion current (icorr) is expressed as (for definitions, see FIG. 13):
[formula] where E.W. is the equivalent weight of the corroding species, g. In this case, the corroding species is Zn, so E.W.=32.7 g. Icorr, is the corrosion current density in μA/cm^2, and d is the density of the corroding species. Density of zinc is 7.140 g/cm^3.
From the icorr values, inhibitor efficiencies (IE, %) were calculated as (equation (1)): […]

[2] = Electrochemical impedance spectroscopy (EIS) of galvanized steel in 3.5% NaCl with additives; conditions: for η, inhibitor efficiency from EIS: 3.5% NaCl, 25° C, pH 5.6, additive 10 mg/mL
Procedure: The electrochemical open-to-air cell (PTC1™ Paint Test Cell, Gamry Instruments, Warminster, Pa.) was utilized for the potentiodynamic polarization (Tafel tests) and electrochemical impedance spectroscopy experiments. […] Tafel tests (ASTM GS) were conducted using a Parstat PMC-2000 multichannel potentiostat equipped with Versa Studio 2.50.3 software (Princeton Applied Research, Oak Ridge, Tenn.). Tafel tests were modeled with a ZSIMPWIN™ software for complex nonlinear least square analyses fitting the circuit models of the electrode interface to the Nyquist amplitude of 10 mV at the open circuit potential in the frequency range of 100 kHz to 0.2 Hz. […] In a series of measurements with the corrosion inhibiting additives, a range of the additive concentrations was studied and the scan range was set from 150 mV below the open circuit voltage (OCV) to 200 mV more positive than the OCV, with three measurements for each condition. The range in these measurements was limited in order to minimize the cathodic polarization causing local pH changes.
EIS (FIGS. 17A and 17B) was applied to further reveal the effects of the corrosion inhibitors on the electrolyte-galvanized steel electrode interface and to complement the potentiodynamic polarization measurements. The qualitative information was obtained using fit analysis embedded into the software used to model the spectra, employing electrical equivalent circuits (EECs).
Elements of the EECs are described in the legend to FIGS. 17A and 17B. The corrosion resistance of the galvanized steel surface in the presence of the corrosion inhibitor represents the RCT+Rp sum. In the control measurement without the additive, the spectrum with one time constant EEC was used, wherein the electrode resistance is represented by RCT.
EIS measurements enabled estimation of the corrosion inhibition efficiency: […]

[3] = cited from earlier work
[4] = cited from earlier work; remark: listed apart in the source
[5] = 44.7 mM, electrolyte containing 0.0165 wt % NaCl (pH not stated); cited from earlier work
[6] = Hygroscopicity on standing in an open jar at 80% relative humidity; type: physicochemical; conditions: converted to pasty solid
Procedure: The crystals were hygroscopic and converted to caramel-like, pasty solid on standing in an open jar at 80% relative humidity. […] Thermogravimetric analysis (TGA) and simultaneous differential scanning calorimetry (DSC) were conducted using a Q600 TGA/DSC instrument (TA Instruments, Inc.). Samples were subjected to heating scans (10 or 20° C./min) in a temperature ramp mode under nitrogen atmosphere.

[7] = Solubility / dissolution testing
[8] = 3.5% NaCl, pH 5.3, [Mg2+] 71.8, [Ac−] 144, [TDPA] 0 meq/L
[9] = 3.5% NaCl, pH 5.6, additive 10 mg/mL
[10] = 3.5% NaCl, pH 2.1, [TDPA] 94.8 meq/L
[11] = 3.5% NaCl, pH 5.3, [TDPA] 47.4 meq/L
[12] = 3.5% NaCl, pH 5.3, [TDPA] 94.8 meq/L
[13] = 3.5% NaCl, pH 5.3, [Mg2+] 9.93, [Ac−] 9.93, [TDPA] 15.9 meq/L
[14] = 3.5% NaCl, pH 5.3, [Mg2+] 41.9, [Ac−] 41.9, [TDPA] 67.1 meq/L
[15] = 3.5% NaCl, pH 5.3, [Mg2+] 62.9, [Ac−] 62.9, [TDPA] 101 meq/L
[16] = 3.5% NaCl, pH 5.3, [Mg2+] 49.8, [TDPA] 49.8 meq/L
[17] = 3.5% NaCl, pH 5.3, [Mg2+] 167, [TDPA] 33.5 meq/L

## CC(=O)[O-].CC(=O)[O-].O.O.O.O.[Mg+2] [MgAc2, magnesium acetate tetrahydrate, reference compound]
[1]; [8]
  Corrosion rate: 37.0 mpy
  Icorr (corrosion current density): 62.1 μA/cm^2
[1]; [9]
  Corrosion rate: 8.03 mpy
  IE, inhibitor efficiency from Tafel: 48%
  Icorr (corrosion current density): 13.5 μA/cm^2
[2]
  η, inhibitor efficiency from EIS: 41%

## O=C(O)CCSCCC(=O)O [TDPA, 3,3′-thiodipropionic acid, reference compound]
[1]; [10]
  Corrosion rate: 474 mpy
  Icorr (corrosion current density): 796 μA/cm^2
[1]; [11]
  Corrosion rate: 26.5 mpy
  Icorr (corrosion current density): 44.5 μA/cm^2
[1]; [12]
  Corrosion rate: 16.9 mpy
  Icorr (corrosion current density): 28.4 μA/cm^2
[1]; [9]
  Corrosion rate: 2.47 mpy
  IE, inhibitor efficiency from Tafel: 84%
  Icorr (corrosion current density): 4.15 μA/cm^2
[1]
  formation of white rust on the steel working electrode: visibly reduced the formation of white rust
[2]
  η, inhibitor efficiency from EIS: 81%
[3]
  pKa: 4.11
[4]
  solubility in solvents: soluble in water, acetone, and alcohol

## CCCCCCCCCC(=O)O [decanoic acid]
[5]
  inhibition efficiency η: 83.5%

## magnesium acetate thiodipropionate [MgAcTDPA]
[1]; [13]
  Corrosion rate: 29.4 mpy
  Icorr (corrosion current density): 49.3 μA/cm^2
[1]; [14]
  Corrosion rate: 7.9 mpy
  Icorr (corrosion current density): 13.3 μA/cm^2
[1]; [15]
  Corrosion rate: 1.85 mpy
  Icorr (corrosion current density): 3.12 μA/cm^2
[1]; [9]
  Corrosion rate: 2.41 mpy
  IE, inhibitor efficiency from Tafel: 84%
  Icorr (corrosion current density): 4.06 μA/cm^2
[1]; 3.5% NaCl
  corrosion inhibitor efficiency compared with other additives: the most efficient corrosion inhibitor
[1]
  formation of white rust on the steel working electrode: visibly reduced the formation of white rust
[2]
  η, inhibitor efficiency from EIS: 80%
[6]
  hygroscopicity of the crystals: hygroscopic
[7]; warm ethanol
  concentration on dissolution in warm ethanol: at least 10 wt %

## magnesium thiodipropionate [MgTDPA1:1]
[1]; 10 mg/mL in 3.5% NaCl, pH 5.6, versus no additive and other additives
  effect on Icorr in Tafel plots (FIG. 16): reduced the Icorr values the most
[1]; 1-2 mM concentrations and above in the 3.5% NaCl electrolyte
  breakdown potentials (instability of the oxide film, pitting corrosion): increased
[1]; [16]
  Corrosion rate: 21.1 mpy
  Icorr (corrosion current density): 35.5 μA/cm^2
[1]; [9]
  Corrosion rate: 1.07 mpy
  IE, inhibitor efficiency from Tafel: 93%
  Icorr (corrosion current density): 1.79 μA/cm^2
[1]; galvanized steel, 3.5% NaCl
  corrosion inhibitor effectiveness compared with controls (data in Table 1): more effective corrosion inhibitor for galvanized steel than either TDPA or MgAc2
[1]
  formation of white rust on the steel working electrode: visibly reduced the formation of white rust
[2]; 10 mg/mL in 3.5% NaCl, pH 5.6, 25° C
  increase in total resistance Ri=RCT+Rp versus Ro=RCT without inhibitor: 283 fold
[2]
  η, inhibitor efficiency from EIS: 99%

## magnesium thiodipropionate [MgTDPA5:1]
[1]; [17]
  Corrosion rate: 50.7 mpy
  Icorr (corrosion current density): 85.1 μA/cm^2
[1]; [9]
  Corrosion rate: 4.65 mpy
  IE, inhibitor efficiency from Tafel: 69%
  Icorr (corrosion current density): 7.82 μA/cm^2
[1]; 3.5% NaCl
  corrosion inhibitor efficiency compared with other additives: quite effective in reducing the corrosion rate
[2]
  η, inhibitor efficiency from EIS: 72%
[7]; 3.5% NaCl electrolyte, yielded a suspension
  solubility in the electrolyte: only fractionally soluble
